The text below walks through data of ChEMBL document CHEMBL1148935, “Mechanism-based inactivation of COX-1 by red wine m-hydroquinones: a structure-activity relationship study” (J Nat Prod, 2004).

The source made the active and inactive calls. The rule behind the calls is not given here.

The target in assay [1] is T1, Prostaglandin G/H synthase 1 (Ovis aries) (UniProt P05979).
T1 sequence (whole entry): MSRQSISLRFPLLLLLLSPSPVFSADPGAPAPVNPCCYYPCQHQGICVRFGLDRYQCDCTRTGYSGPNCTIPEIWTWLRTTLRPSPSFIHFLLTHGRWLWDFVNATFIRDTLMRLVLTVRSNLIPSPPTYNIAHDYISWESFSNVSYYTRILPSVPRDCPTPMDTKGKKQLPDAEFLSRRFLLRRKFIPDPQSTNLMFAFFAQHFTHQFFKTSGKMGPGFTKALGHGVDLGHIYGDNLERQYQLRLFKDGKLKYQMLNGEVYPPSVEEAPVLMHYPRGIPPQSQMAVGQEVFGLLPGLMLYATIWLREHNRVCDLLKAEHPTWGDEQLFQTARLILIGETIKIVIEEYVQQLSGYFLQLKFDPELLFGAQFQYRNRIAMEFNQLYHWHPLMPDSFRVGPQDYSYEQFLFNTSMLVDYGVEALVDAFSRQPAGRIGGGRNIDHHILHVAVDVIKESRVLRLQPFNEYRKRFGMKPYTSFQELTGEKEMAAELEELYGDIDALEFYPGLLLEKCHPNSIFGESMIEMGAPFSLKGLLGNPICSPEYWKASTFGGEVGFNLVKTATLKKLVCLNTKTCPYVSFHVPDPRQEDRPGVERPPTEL
Kind of assay: Inactivation of holo-COX1 in sheep seminal vesicle assessed as drug oxidization at 2.5 to 4 nmol by RP-HPLC in presence of hydrogen peroxide.

In assay [2] the target is T2, Prostaglandin G/H synthase 1 (Ovis aries, UniProt P05979).
T2 sequence (P05979 whole entry): T1 sequence (whole entry)
In words: Inhibition of peroxidase activity of COX1 in heep seminal vesicle by TMPD assay. It is filed as tissue-based.

Assay [3] addresses T2, Prostaglandin G/H synthase 1. In words: Inhibition of cyclooxygenase activity of COX1 in sheep seminal vesicle in presence of 1 mM phenol by cyclooxygenase assay. It is filed as tissue-based.
For assay [4] the target is unchanged. Kind of assay: Binding affinity to COX1 in sheep seminal vesicle.
The target of assay [5] is T1, Prostaglandin G/H synthase 1 (Ovis aries). In words: Effect on COX1 activity in sheep seminal vesicle at 5 uM by TMPD peroxidase assay. Type of assay: tissue-based.
Assay [6] deals with T3, Prostaglandin G/H synthase 2 (Homo sapiens) (UniProt P35354).
T3 sequence (whole entry): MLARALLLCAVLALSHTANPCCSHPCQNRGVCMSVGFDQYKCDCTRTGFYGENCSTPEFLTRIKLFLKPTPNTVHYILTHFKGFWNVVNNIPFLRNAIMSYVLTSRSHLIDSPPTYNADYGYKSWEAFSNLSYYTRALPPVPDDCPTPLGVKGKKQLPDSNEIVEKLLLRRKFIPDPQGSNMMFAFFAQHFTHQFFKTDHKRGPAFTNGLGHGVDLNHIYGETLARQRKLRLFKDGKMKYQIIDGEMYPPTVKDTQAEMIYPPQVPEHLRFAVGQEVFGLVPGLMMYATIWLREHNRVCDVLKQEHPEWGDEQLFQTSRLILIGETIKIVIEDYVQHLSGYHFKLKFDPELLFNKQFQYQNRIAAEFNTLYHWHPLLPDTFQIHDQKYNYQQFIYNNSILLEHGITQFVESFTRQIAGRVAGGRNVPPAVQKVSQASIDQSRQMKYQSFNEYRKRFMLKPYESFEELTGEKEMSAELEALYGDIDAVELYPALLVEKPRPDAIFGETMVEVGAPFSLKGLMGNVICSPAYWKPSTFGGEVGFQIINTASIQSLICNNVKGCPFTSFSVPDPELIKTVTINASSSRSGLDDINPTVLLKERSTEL
Kind of assay: Inhibition of human COX2 expressed in baculovirus infected Sf-21 insect cells.

For `Oc1cc(O)c2c(c1)O[C@@H](c1ccc(O)c(O)c1)[C@@H](O)C2` [(+)-EPICATECHIN], the Activity in assay [1] amounted to 5%. Besides, the concentration for half-maximal inhibition (IC50) worked out at 2.5 µM in assay [2] and 12.8 µM in assay [3]. In addition, in assay [4], binding was put at a Kd of 25.1 µM. Besides, the result in assay [5] and in assay [6] was inactive.

On to `Oc1cc(O)c2c(c1)O[C@@H](c1ccc(O)c(O)c1)[C@H](O)C2` [(-)-CATECHIN], for which, in assay [1], the Activity was 8%. Further, the IC50 was 5.3 µM in assay [2] and 30.8 µM in assay [3]. This compound also displayed a Kd in assay [4] of 48.7 µM. For the same compound, the outcome in assay [5] and in assay [6] was inactive.

`Oc1cc(O)c2c(c1)O[C@H](c1ccc(O)c(O)c1)[C@H](O)C2` [(-)-EPICATECHIN]: the Activity in assay [1] stood at 5%. The IC50 in assay [2] amounted to 2 µM; in assay [3] it was 12.2 µM. The compound further returned a dissociation constant Kd in assay [4] of 25.9 µM. Moreover, the result in assay [5] and in assay [6] was inactive.

As to `Oc1cc(O)c2c(c1)O[C@H](c1ccc(O)c(O)c1)[C@@H](O)C2` [CIANIDANOL], the Activity in assay [1] was 7%. Moreover, the IC50 in assay [2] was determined as 4.1 µM; in assay [3], 20.2 µM. Besides, the Kd in assay [4] was found to be 40.7 µM. Besides, the result in assay [5] and in assay [6] was inactive.

`Oc1cccc(O)c1` [RESORCINOL]: the Activity in assay [1] was 5%. Besides, the IC50 in assay [2] is 3.6 µM; in assay [3] it was 30.8 µM. The same compound yielded a Kd in assay [4] of 86.9 µM. Moreover, in assay [5], the result was inactive.

On to `Oc1ccc(/C=C/c2cc(O)cc(O)c2)cc1` [RESVERATROL], for which the results for the IC50 in assay [2] and in assay [3] were 2.8 µM and 67.3 µM, respectively. In assay [4], this compound had a Kd of 11.7 µM. In assay [5], the result was inactive.

The term IC50 denotes the concentration at which inhibition is half-maximal. One may read the Kd as the constant that tells how readily two partners part at equilibrium.
